pKi: −log10 of the molar value. Square brackets hold non-standard residues; d marks the D form. Peptide text beside a SMILES is read from it. * marks the point of attachment. ξ: configuration not given here. ξF = NC(Cc1ccccc1)C(=O)O; Boc = CC(C)(C)OC(=O)*; CF3 = FC(F)(F)*
Tests used:
Chymotrypsinogen A = Chymotrypsinogen A (Bos taurus, UniProt P00766); experiment: The compound was tested for its potency to inhibit alpha-Chymotrypsin
Cathepsin G = molecular target: T1, Cathepsin G (Homo sapiens, UniProt P08311); experiment: The compound was tested for its potency to inhibit human Cathepsin G
T1 sequence (P08311 whole entry): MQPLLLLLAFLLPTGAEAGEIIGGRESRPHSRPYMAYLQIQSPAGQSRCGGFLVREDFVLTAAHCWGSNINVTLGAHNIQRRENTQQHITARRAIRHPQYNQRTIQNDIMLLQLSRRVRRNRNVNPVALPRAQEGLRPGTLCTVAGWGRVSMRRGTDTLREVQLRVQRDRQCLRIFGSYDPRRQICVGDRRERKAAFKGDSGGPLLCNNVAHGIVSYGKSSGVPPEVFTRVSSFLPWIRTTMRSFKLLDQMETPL

Neutrophil elastase = molecular target: T2, Neutrophil elastase (Homo sapiens, UniProt P08246); experiment: The compound was tested for its potency to inhibit human neutrophil elastase activity
T2 sequence (P08246 whole entry): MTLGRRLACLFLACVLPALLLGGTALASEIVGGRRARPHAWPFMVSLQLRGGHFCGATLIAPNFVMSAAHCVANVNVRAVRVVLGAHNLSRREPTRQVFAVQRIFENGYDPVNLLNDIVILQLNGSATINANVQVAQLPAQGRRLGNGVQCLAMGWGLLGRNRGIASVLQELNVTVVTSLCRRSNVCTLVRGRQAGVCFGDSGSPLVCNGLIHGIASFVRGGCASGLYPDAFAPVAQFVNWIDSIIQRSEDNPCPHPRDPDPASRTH

Row | Compound | pKi (Chymotrypsinogen A) | pKi (Cathepsin G) | pKi (Neutrophil elastase)
1 | CC(C)C(NC(=O)[C@@H]1CCCN1C(=O)[C@@H](NC(=O)c1ccc(C(=O)NC(Cc2ccccc2)C(=O)C(F)(F)F)cc1)C(C)C)C(=O)C(F)(F)C(F)(F)F (some centres not stated) | 5.92 | < 3.00 | 8.40
2 | CC(C)C(NC(=O)[C@@H]1CCCN1C(=O)[C@@H](NC(=O)OC(C)(C)C)C(C)C)C(=O)C(F)(F)C(F)(F)F (some centres not stated) |  |  | 7.26
3 | CC(C)C(NC(=O)[C@@H]1CCCN1C(=O)[C@@H](NC(=O)c1ccc(C(=O)N[C@@H](C(=O)N2CCC[C@@H]2C(=O)NC(Cc2ccccc2)C(=O)C(F)(F)F)C(C)C)cc1)C(C)C)C(=O)C(F)(F)C(F)(F)F (some centres not stated) |  | 5.66 | 7.80
4 | CC(C)[C@H](NC(=O)OC(C)(C)C)C(=O)N1CCC[C@H]1C(=O)NC(Cc1ccccc1)C(=O)C(F)(F)F (stereo partly drawn) (Boc-Val-Pro-[ξF]-CF3) |  | 5.77 | 
